According to US20200190172A1, “METHOD FOR DIAGNOSING/DETERMINING THE EFFECTIVENESS OF TREATMENT FOR DEPRESSION” (Centre National De La Recherche Scientifique, priority 2016, published 2020):
Where no end group is shown, it is not given here.

Assays:
[1] = tested on: anti-spadin antibodies (AB1 polyclonal antibody); assay: AlphaLISA competition assay: biotinylated spadin / anti-spadin antibody displaced by peptides; format: binding, rabbit; details: for recognition by the anti-spadin antibodies (AB1): AlphaLISA, FIG. 1A-1C; for IC50: competition with 10 nM biotinylated spadin, antibody 1:1000
Description: The antibody used was the AB1 antibody, as mentioned above.
When two microbeads (acceptors and donors) were in close proximity, the signal was produced by a molecular interaction between the binding partners on the beads. The propeptide present in the serum sample was able to interfere with this interaction leading to competition. […] After the addition of donor and acceptor beads and an additional incubation for 2 hours at room temperature, the plates were read using an Enspire reader (Perkin). […] The quantity of propeptide was determined from its signal percent inhibition and calculated using the standard curve.

mice = assay: Porsolt Forced Swim Test (FST); format: in vivo, mice (C57BL/6J); details: for immobility time compared to saline solution: FST, final 4 min of 6 min, p<0.0001 spadin, 12-27 PE, 22-28 PE, p=0.0026 14-25 PE; for Antidepressant activity: Porsolt Forced Swim Test, intravenous injection, mice
Description: The experiments were performed on males of 20-25 g C57BL/6J of 8-10 weeks old (January France Elevage) in accordance with the policies on the welfare and use of laboratory animals set out in European Community Directive 2010/63/EU. The local ethics committee (CIEPAL) has approved the protocols used in this study (Protocol Number 00.893.02).
After intravenous injection of saline solution or various tested peptides, the mice (n=10-12 per group) were placed individually in a cylinder (height: 30 cm, diameter: 15 cm) filled with water to a depth of 12 cm (temperature: 22±1° C.) for 6 min. The total immobility time was recorded during the final 4 min (Porsolt et al., 1977).

AB2 polyclonal antibody = assay: Recognition of PE fragments by AB2 polyclonal antibody (FIG. 1A); format: binding, rabbit
From the text: FIG. 1: FIG. 1A is a diagram representing the structure/recognition relationships of the antibodies AB1 and AB2 according to the different fragments. […] FIGS. 1B and 1C represent the relative affinities for spadin, PE and analogs assayed by the detection method.
In particular, antibodies AB1 and AB2 were obtained by injecting into two rabbits, namely Oryctolagus cuniculus, spadin coupled to KLH (Keyhole limpet hemocyanin protein) (AB1) or mini-spadin (22-28 PE) coupled to KLH (AB2) on day 0, DO (1 mg), day 7, D7 (1 mg), day 14, D14 (1 mg) and day 29, D29 (1 mg). Blood samples, namely 20 ml, were taken on day 27 (D27) and day 42 (D42). The polyclonal serum was obtained by centrifuging at 1200×g for 10 min. The polyclonal serum corresponding to the supernatant was recovered. The immune response was checked by ELISA for each antibody. The antibodies contained in the serum were kept at −20° C.

TREK-1 potassium channel = biological target: T1, TREK-1 potassium channel (Mus musculus, UniProt P97438); details: injected intravenously or intraperitoneally into mice; by inhibiting TREK-1 channel activity; cited from earlier work
T1 construct: host or cells: living mice (endogenous channel)
T1 sequence (P97438 1-426): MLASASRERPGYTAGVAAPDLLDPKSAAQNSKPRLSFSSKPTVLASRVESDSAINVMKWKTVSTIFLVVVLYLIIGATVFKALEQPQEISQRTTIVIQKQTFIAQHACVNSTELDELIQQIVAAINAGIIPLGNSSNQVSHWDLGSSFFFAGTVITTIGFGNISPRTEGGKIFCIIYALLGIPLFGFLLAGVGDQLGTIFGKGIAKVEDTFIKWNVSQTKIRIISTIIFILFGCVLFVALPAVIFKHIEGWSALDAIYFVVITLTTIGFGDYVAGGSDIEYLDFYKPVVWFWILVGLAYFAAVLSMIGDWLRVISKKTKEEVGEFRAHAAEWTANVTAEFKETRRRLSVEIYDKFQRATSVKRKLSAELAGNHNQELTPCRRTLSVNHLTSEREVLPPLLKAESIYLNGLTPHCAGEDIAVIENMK

[2] = Stability of PE in human serum (AlphaLISA); format: in vitro ADME; details: serum with or without EDTA, room temperature (22° C.), 24 h
Description: FIG. 3: FIG. 3 is a histogram representing the stability of PE in the human serum. Serums with or without EDTA (n=7 for each matrix) from healthy blood donors were tested for their stability at room temperature for 24 h. The PE concentration for each incubation period was determined using an AlphaLISA assay method. The average concentrations at the different points in time are expressed as an average ±SEM.
The antidepressant activity of the analogs was tested using the FST. […] (Ordinarily ANOVA, F5.54=20.21, **** p<0.0001 for spadin, 12-27 PE and 22-28 fragments compared to saline mice treated with a saline solution, ** p=0.0026 for 14-25 PE fragment compared to saline mice treated with a saline solution; error bars, average ±SEM). […] A study of the stability of PE in human serum was carried out. FIG. 3 is a histogram representing the stability of PE in human serum. Serums with or without EDTA (n=7 for each matrix) from healthy blood donors were tested for their stability at room temperature (22° C.) for 24 h. The PE concentration for each incubation period was determined using an AlphaLISA assay method. In FIG. 3, the average concentrations at the different time points are expressed as an average ±SEM. […] The unpaired t test for the PE concentration between serum and EDTA-serum indicated no significant difference for each time.

[3] = biological target: polyclonal antibodies (AB1) directed against the peptide of sequence … (Spadin); assay: AlphaLISA competition, unlabelled peptide against 10 nM biotinylated spadin on AB1 (1:1000)
[4] = biological target: polyclonal antibodies (AB1) directed against the peptide of sequence … (Spadin); assay: AlphaLISA competition against biotinylated spadin (differs from Table 2)

Molecule | recognition by the anti-spadin antibodies (AB1) [1] | IC50 [1] | Antidepressant activity (mice) | IC50 [3] | further results
C[C@H](N)C(=O)NCC(=O)N[C@H]1CSSC[C@@H](C(=O)O)NC(=O)[C@H](CO)NC(=O)[C@H]([C@@H](C)O)NC(=O)[C@H](Cc2ccccc2)NC(=O)[C@H]([C@@H](C)O)NC(=O)[C@H](CCCCN)NC(=O)[C@H](Cc2c[nH]c3ccccc23)NC(=O)[C@H](Cc2ccccc2)NC(=O)[C@H](Cc2ccccc2)NC(=O)[C@H](CC(N)=O)NC(=O)[C@H](CCCCN)NC1=O [somatostatin-14, reference compound] | not recognized | – | – | – | recognition by the anti-spadin antibodies (AB1) ([1]; listed as somatostatin): incapable of interfering
APLPRWSGPIGVSWGL [12-27 PE, peptide fragment 12 to 27 of the propeptide] | recognized | 1.73 nM | showed an antidepressant activity and Yes | – | recognition by the anti-spadin antibodies (AB1) ([1]; listed as SEQ ID NO 3): binds; immobility time compared to saline solution (mice): shorter immobility time
APLPRWSGPIGVSWGLR [spadin] | recognized | 2.5 nM | showed an antidepressant activity | – | recognition by the anti-spadin antibodies (AB1) ([1]; listed as SEQ ID NO 2): binds; immobility time compared to saline solution (mice): shorter immobility time; Antidepressant activity (mice; listed as spadin 12-28 PE): Yes; binding by AB2 polyclonal antibody (AB2 polyclonal antibody): bound; antidepressant (AD) activities (TREK-1 potassium channel): powerful antidepressant (AD) activities
GVSWGLR [22-28 PE, peptide fragment 22 to 28 of the propeptide] | not recognized | > 1000 nM | Yes | – | recognition by the anti-spadin antibodies (AB1) ([1]; listed as SEQ ID NO 6): sole exception; immobility time compared to saline solution (mice): shorter immobility time; binding by AB2 polyclonal antibody (AB2 polyclonal antibody): bound
LPRWSGPIGVSW [14-25 PE, peptide fragment 14 to 25 of the propeptide] | recognized | 3.44 nM | showed an antidepressant activity and Yes | – | recognition by the anti-spadin antibodies (AB1) ([1]; listed as SEQ ID NO 4): binds; immobility time compared to saline solution (mice): shorter immobility time
QDRLDAPPPPAAPLPR [1-16 PE, peptide fragment 1 to 16 of the propeptide] | not recognized | > 1000 nM | No | – | –
QDRLDAPPPPAAPLPRWSGPIGVSWGLRAAAAGGAFPRGGRWRR [PE] | – | – | – | – | stability of PE in human serum [2]: stability of the SLI measurement for 24 hours at room temperature
WSGPI [SEQ ID NO 5] | binds | – | – | – | –
QDRLDAPPPPAAPLPRWSGPIGVSWGLRAAAAGGAFPRGGRWRR [Propeptide (PE) 44AA] | – | – | – | 2.18 nM | –
APLPRWSGPIGVSWGL [12-27 PE] | – | – | – | 1.73 nM | IC50 [4]: 3.44 nM
APLPRWSGPIGVSWGLR [spadin 12-28 PE] | – | – | – | 2.5 nM | –
QDRLDAPPPPAAPLPR [1-16 PE (pro-spadin)] | – | – | – | > 1000 nM | –
GVSWGLR [22-28 PE] | – | – | – | > 1000 nM | –
LPRWSGPIGVSW [14-25 PE] | – | – | – | 3.44 nM | IC50 [4]: 1.73 nM
